# Results published in patent US6914045B2, “Glycopeptide antibiotics” (Wyeth Holdings Corporation, priority 2001, dated 2005).
# Read-outs that look alike come from different tables or passages of the source.
# Experiments:
# [1] = test system: Gram-positive bacteria comprised of Staphylococcus sp., Streptococcus sp. and Enterococcus sp.; experiment: in vitro antibacterial evaluation, MIC by broth dilution (strain not given); assay type: cell-based
# Procedure: Methods for in vitro Antibacterial Evaluation (Table 1)
# The minimum inhibitory concentration (MIC), the lowest concentration of the antibiotic which inhibits growth of the test organism, is determined by the broth dilution method using Muller-Hinton II […] (Baltimore Biological Laboratories) following the recommendations of the National Committee for Clinical Laboratory Standards [Methods for dilution antimicrobial susceptibility tests for bacteria that grow aerobically, approved standard M7-A2, National Committee for Clinical Laboratory Standards, Villanova, Pa.].
# An inoculum level of 5×10^5 CFU/mL, and a range of antibiotic concentrations (64-0.06 μg/mL) is used. […] The test organisms include a spectrum of Gram-positive bacteria comprised of Staphylococcus sp., Streptococcus sp. and Enterococcus sp. These organisms include recent clinical isolates that are resistant to methicillin, penicillin and/or vancomycin.
# [2] = test system: Staphylococcus aureus-SMITH (GC 4543); experiment: acute lethal infection in mice; assay type: in vivo; conditions: Staphylococcus, read-out: median effective dose (ED50), Staphylococcus aureus-SMITH (GC 4543)
# In short: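 Female CD-1 mice (20±2 g) got an intraperitoneal bacterial challenge lethal to untreated controls within 24–48 hr. Compound was dosed intravenously 30 min after infection, five mice per dose. ED50 was calculated from 7-day survival pooled across 3 tests.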
# [3] = test system: Streptococcus sp.; experiment: in vitro antibacterial evaluation, MIC by broth dilution; assay type: cell-based; conditions: broth dilution, 18 hours at 35° C.
# In short: (§1)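 Inoculum 5×10^5 CFU/mL; concentrations 64 to 0.06 μg/mL; MIC defined as lowest inhibitory level. Conducted by broth dilution under NCCLS guidelines.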
# [4] = test system: Staphylococcus sp.; experiment: as above; assay type: cell-based; conditions: broth dilution, 18 hours at 35° C.
# In short: as §1
# [5] = test system: Enterococcus sp.; experiment: as above; assay type: cell-based; conditions: broth dilution, 18 hours at 35° C.
# In short: as §1
# [6] = test system: Escherichia coli; experiment: as above; assay type: cell-based; conditions: 18 hours at 35° C.
# In short: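 Broth dilution per NCCLS standard M7-A2 in Muller-Hinton II […], with an inoculum of 5×10^5 CFU/mL and antibiotic spanning 64-0.06 μg/mL. The MIC is the lowest concentration that inhibits growth of the organism.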
compound,measurement,setting,value
"CC(c1ccccc1)[C@@H]1NC(=O)CNC(=O)[C@H](CO)NC(=O)[C@H](C(O)C2CNC(=N)N2)NC(=O)[C@H](C(O)C2CNC(=N)N2)NC(=O)[C@H](Cc2ccc(O)cc2)NC1=O (stereo partly drawn) [Example 280b, Cyclo[glycyl-β-methylphenylalanyltyrosyl-3-(2-iminoimidazolidin-4-yl)seryl-3-(2-iminoimidazolidin-4-yl)serylseryl]]",MIC,"[1]; Table 2 section r2574-r2600, column 1, 18 hours at 35° C., read-out: MIC, strain of column 1",128 µg/mL
same,MIC,"[1]; Table 2 section r2574-r2600, column 2, 18 hours at 35° C., read-out: MIC, strain of column 2",64 µg/mL
same,MIC,"[1]; Table 2 section r2574-r2600, column 3, 18 hours at 35° C., read-out: MIC, strain not given",128 µg/mL
same,MIC,"[1]; Table 2 section r2574-r2600, column 5, 18 hours at 35° C., read-out: MIC, strain of column 5",64 µg/mL
same,MIC,"[1]; Table 2 section r2574-r2600, column 7, 18 hours at 35° C., read-out: MIC, strain not given",> 128 µg/mL
same,MIC,"[1]; Table 2 section r2574-r2600, column 9, 18 hours at 35° C., read-out: MIC, strain of column 9",> 128 µg/mL
same,MIC,"[1]; Table 2 section r2574-r2600, column 10, 18 hours at 35° C., read-out: MIC, strain of column 10",> 128 µg/mL
same,ED50,[2],> 8 mg/kg
same,MIC,"[3]; strain ATCC 6301, read-out: MIC Streptococcus pneumoniae (ATCC 6301)",32 µg/mL
same,MIC,"[3]; strain GC 1894, read-out: MIC Streptococcus pneumoniae (GC 1894)",64 µg/mL
same,MIC,"[3]; strain GC 4563, read-out: MIC Streptococcus pyogenes (GC 4563)",64 µg/mL
same,MIC,"[3]; strain GC 4564, read-out: MIC Streptococcus agalactiae (GC 4564)",128 µg/mL
same,MIC,"[3]; strain GC 4565, read-out: MIC Streptococcus pneumoniae (GC 4565)",128 µg/mL
same,MIC,"[4]; Staphylococcus, read-out: MIC Coagulase Negative Staphylococcus (GC 4547)",32 µg/mL
same,MIC,"[4]; Staphylococcus, read-out: MIC Coagulase Negative Staphylococcus (GC 4548)",128 µg/mL
same,MIC,"[4]; Staphylococcus, read-out: MIC Coagulase Negative Staphylococcus (GC 4549)",32 µg/mL
same,MIC,"[4]; Staphylococcus, read-out: MIC Coagulase Negative Staphylococcus (GC 4551)",128 µg/mL
same,MIC,"[4]; Staphylococcus, read-out: MIC Coagulase Negative Staphylococcus (GC 6257)",32 µg/mL
same,MIC,"[4]; Staphylococcus, read-out: MIC Staphylococcus aureus-SMITH (GC 4543)",64 µg/mL
same,MIC,[4]; read-out: MIC Staphylococcus aureus (ATCC 29213),128 µg/mL
same,MIC,[4]; read-out: MIC Staphylococcus aureus (GC 1131),> 128 µg/mL
same,MIC,[4]; read-out: MIC Staphylococcus aureus (GC 3051),128 µg/mL
same,MIC,[4]; read-out: MIC Staphylococcus aureus (GC 3053),> 128 µg/mL
same,MIC,[4]; read-out: MIC Staphylococcus aureus (GC 4541),128 µg/mL
same,MIC,[4]; read-out: MIC Staphylococcus aureus (GC 4542),128 µg/mL
same,MIC,[4]; read-out: MIC Staphylococcus aureus (GC 4544),128 µg/mL
same,MIC,[4]; read-out: MIC Staphylococcus aureus (GC 4545),64 µg/mL
same,MIC,[4]; read-out: MIC Staphylococcus haemolyticus (GC 4546),32 µg/mL
same,MIC Staphylococcus aureus (ATCC 29213),[4]; strain ATCC 29213,128 µg/mL
same,MIC Staphylococcus aureus (GC 1131),[4]; strain GC 1131,>128 µg/mL
same,MIC Staphylococcus aureus (GC 3051),[4]; strain GC 3051,128 µg/mL
same,MIC Staphylococcus aureus (GC 3053),[4]; strain GC 3053,>128 µg/mL
same,MIC Staphylococcus aureus (GC 4541),[4]; strain GC 4541,128 µg/mL
same,MIC Staphylococcus aureus (GC 4542),[4]; strain GC 4542,128 µg/mL
same,MIC Staphylococcus aureus (GC 4544),[4]; strain GC 4544,128 µg/mL
same,MIC Staphylococcus aureus (GC 4545),[4]; strain GC 4545,64 µg/mL
same,MIC Staphylococcus haemolyticus (GC 4546),[4]; strain GC 4546,32 µg/mL
same,MIC Coagulase Negative Staphylococcus (GC 4547),[4]; strain GC 4547,32 µg/mL
same,MIC Coagulase Negative Staphylococcus (GC 4548),[4]; strain GC 4548,128 µg/mL
same,MIC Coagulase Negative Staphylococcus (GC 4549),[4]; strain GC 4549,32 µg/mL
same,MIC Coagulase Negative Staphylococcus (GC 4551),[4]; strain GC 4551,128 µg/mL
same,MIC Coagulase Negative Staphylococcus (GC 6257),[4]; strain GC 6257,32 µg/mL
same,MIC Staphylococcus aureus-SMITH (GC 4543),[4]; strain SMITH GC 4543,64 µg/mL
same,MIC,"[5]; Enterococcus avium (GC 4558), read-out: MIC, Enterococcus avium (GC 4558)",128 µg/mL
same,MIC,"[5]; Enterococcus faecalis (ATCC 29212), read-out: MIC, Enterococcus faecalis (ATCC 29212)",> 128 µg/mL
same,MIC,"[5]; Enterococcus faecalis (GC 4553), read-out: MIC, Enterococcus faecalis (GC 4553)",> 128 µg/mL
same,MIC,"[5]; Enterococcus faecalis (GC 4554), read-out: MIC, Enterococcus faecalis (GC 4554)",> 128 µg/mL
same,MIC,"[5]; Enterococcus faecalis (GC 6189), read-out: MIC, Enterococcus faecalis (GC 6189)",> 128 µg/mL
same,MIC,"[5]; Enterococcus faecium (GC 2243), read-out: MIC, Enterococcus faecium (GC 2243)",128 µg/mL
same,MIC,"[5]; Enterococcus faecium (GC 4556), read-out: MIC, Enterococcus faecium (GC 4556)",> 128 µg/mL
same,MIC,"[5]; Enterococcus faecium (GC 4557), read-out: MIC, Enterococcus faecium (GC 4557)",64 µg/mL
same,MIC,"[5]; strain ATCC 29212, read-out: MIC Enterococcus faecalis (ATCC 29212)",> 128 µg/mL
same,MIC,"[5]; strain GC 2242, read-out: MIC Enterococcus faecalis (GC 2242)",> 128 µg/mL
same,MIC,"[5]; strain GC 2243, read-out: MIC Enterococcus faecium (GC 2243)",128 µg/mL
same,MIC,"[5]; strain GC 2691, read-out: MIC Enterococcus faecalis (GC 2691)",> 128 µg/mL
same,MIC,"[5]; strain GC 3059, read-out: MIC Enterococcus faecalis (GC 3059)",> 128 µg/mL
same,MIC,"[5]; strain GC 4552, read-out: MIC Enterococcus faecalis (GC 4552)",> 128 µg/mL
same,MIC,"[5]; strain GC 4553, read-out: MIC Enterococcus faecalis (GC 4553)",> 128 µg/mL
same,MIC,"[5]; strain GC 4554, read-out: MIC Enterococcus faecalis (GC 4554)",> 128 µg/mL
same,MIC,"[5]; strain GC 4556, read-out: MIC Enterococcus faecium (GC 4556)",> 128 µg/mL
same,MIC,"[5]; strain GC 4557, read-out: MIC Enterococcus faecium (GC 4557)",64 µg/mL
same,MIC,"[5]; strain GC 4558, read-out: MIC Enterococcus avium (GC 4558)",128 µg/mL
same,MIC,"[5]; strain GC 6189, read-out: MIC Enterococcus faecalis (GC 6189)",> 128 µg/mL
same,MIC,"[6]; ATCC25922, Escherichia coli (ATCC 25922), read-out: MIC, Escherichia coli (ATCC 25922)",32 µg/mL
same,MIC,"[6]; Escherichia coli (GC 4559), read-out: MIC, Escherichia coli (GC 4559)",16 µg/mL
same,MIC,"[6]; Escherichia coli (GC 4560), read-out: MIC, Escherichia coli (GC 4560)",32 µg/mL
